According to the supplement of paper PMC11061612:

Columns and labels:
Test in all cases: Bliss excess, mean over the matrix (fraction); higher = more synergy
[1] = tested on: HCC-827 (Lung Adenocarcinoma)
In short: (§1)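 Cell lines grown in DMEM/F12 or RPMI with 10% FBS were plated in 1536-well plates and held 24 hours at 37°C, 5% CO2 before 72 hours of exposure to two-drug dose matrices, with DMSO typically at 0.2%. CellTiter-Glo 2.0 luminescence gave viability, which was converted to inhibition. Vehicle wells were set to 0 and blank wells to 1. Combination Emax is the second-highest inhibition in the matrix, and Bliss excess is the observed combination effect minus the expected EA + EB − EA·EB, where EA and EB are the single-agent effects.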

[2] = tested on: SNG-M (Endometrial Carcinoma)
In short: as §1

[3] = tested on: SK-UT-1 (Other Solid Carcinomas)
In short: as §1

[4] = tested on: SNU-61 (Colorectal Carcinoma)
In short: as §1

[5] = tested on: P31-FUJ (Acute Myeloid Leukemia)
In short: as §1

[6] = tested on: EKVX (Non-Small Cell Lung Carcinoma)
In short: as §1

[7] = tested on: HOP-92 (Non-Small Cell Lung Carcinoma)
In short: as §1

[8] = tested on: TYK-nu (Ovarian Carcinoma)
In short: as §1

[9] = tested on: JHH-6 (Hepatocellular Carcinoma)
In short: as §1

MSTO-211H (Mesothelioma) = tested on: MSTO-211H (Mesothelioma)
In short: as §1

[10] = tested on: 647-V (Bladder Carcinoma)
In short: as §1

[11] = tested on: EFM-192A (Breast Carcinoma)
In short: as §1

CS1 (Chondrosarcoma) = tested on: CS1 (Chondrosarcoma)
In short: as §1

[12] = tested on: MEG-01 (Chronic Myelogenous Leukemia)
In short: as §1

[13] = tested on: HCT-116 (Colorectal Carcinoma)
In short: as §1

[14] = tested on: SLVL (B-Cell Non-Hodgkin's Lymphoma)
In short: as §1

A172 (Glioblastoma) = tested on: A172 (Glioblastoma)
In short: as §1

H4 (Low Grade Glioma) = tested on: H4 (Low Grade Glioma)
In short: as §1

[15] = tested on: WSU-DLCL2 (B-Cell Non-Hodgkin's Lymphoma)
In short: as §1

[16] = tested on: BICR78 (Oral Cavity Carcinoma)
In short: as §1

Row | Compound | Bliss excess [1] | Bliss excess [2] | Bliss excess [3] | Bliss excess [4] | Bliss excess [5] | Bliss excess [6] | Bliss excess [7] | Bliss excess [8] | Bliss excess [9] | Bliss excess (MSTO-211H (Mesothelioma)) | Bliss excess [10] | Bliss excess [11] | Bliss excess (CS1 (Chondrosarcoma)) | Bliss excess [12] | Bliss excess [13] | Bliss excess [14] | Bliss excess (A172 (Glioblastoma)) | Bliss excess (H4 (Low Grade Glioma)) | Bliss excess [15] | Bliss excess [16]
1 | CN(CCO)CC[C@H](CSc1ccccc1)Nc1ccc(S(=O)(=O)NC(=O)c2ccc(N3CCC([C@@H](O)c4ccccc4-c4ccc(Cl)cc4)CC3)cc2)cc1S(=O)(=O)C(F)(F)F [AZD4320] + C[C@@H](Nc1cc(F)cc(F)c1)c1cc(C(=O)N(C)C)cc2c(=O)cc(N3CCOCC3)oc12 [AZD8186] (first compound max 1 µM, 7x7, partner max 3 µM) | -0.0294 | 0.0018 | 0.002 | 0.016 | 0.019 | -0.0127 | 0.0329 | -0.0224 | -0.0164 | 0.0841 | 0.0441 | 0.0057 | -0.0411 | 0.0022 | 0.0266 | 0.0476 | 0.0387 | 0.0521 | 0.0852 | -0.0594
2 | CN(CCO)CC[C@H](CSc1ccccc1)Nc1ccc(S(=O)(=O)NC(=O)c2ccc(N3CCC([C@@H](O)c4ccccc4-c4ccc(Cl)cc4)CC3)cc2)cc1S(=O)(=O)C(F)(F)F [AZD4320] + Cc1cc2ncnn2cc1Nc1ncc2c(n1)n(C1CCOCC1)c(=O)n2C [AZD7648] (first compound max 1 µM, 7x7, partner max 10 µM) | -0.0339 | -0.0007 | -0.0195 | -0.0254 | -0.0229 | -0.0398 | -0.0034 | -0.0405 | -0.024 | -0.0237 | -0.0508 | -0.0265 | -0.02 | 0.0304 | -0.0197 | 0.0119 | -0.0828 | -0.0355 | 0.0591 | -0.0167
3 | Cc1c2c(nn1C)CSCc1cc(n(C)n1)CSc1cc(c3ccccc3c1)OCCCc1c(C(=O)O)n(C)c3c-2c(Cl)ccc13 [AZD5991] + C1CN(CCC1(C(=O)N[C@@H](CCO)C2=CC=C(C=C2)Cl)N)C3=NC=NC4=C3C=CN4 [Capivasertib] (first compound max 1 µM, 7x7, partner max 3 µM) | -0.0212 | -0.0065 | 0.0297 | -0.0174 | 0.0182 | -0.015 | -0.0294 | 0.0172 | -0.0163 | -0.0066 | -0.0059 | 0.0579 | -0.0261 | -0.0122 | -0.0275 | 0.004 | -0.0001 | 0.0378 | 0.013 | -0.0198
4 | Cc1c2c(nn1C)CSCc1cc(n(C)n1)CSc1cc(c3ccccc3c1)OCCCc1c(C(=O)O)n(C)c3c-2c(Cl)ccc13 [AZD5991] + C=CCn1c(=O)c2cnc(Nc3ccc(N4CCN(C)CC4)cc3)nc2n1-c1cccc(C(C)(C)O)n1 [AZD1775] (first compound max 1 µM, partner max 1 µM) | -0.0243 | -0.0456 | -0.0534 | -0.0118 | -0.0127 | 0.0335 | -0.012 | 0.0279 | -0.0647 | 0.0284 | 0.059 | -0.0297 | -0.0118 | -0.0401 | 0.0226 | -0.0346 | 0.0736 | -0.042 | -0.0245 | -0.0034
5 | Cc1c2c(nn1C)CSCc1cc(n(C)n1)CSc1cc(c3ccccc3c1)OCCCc1c(C(=O)O)n(C)c3c-2c(Cl)ccc13 [AZD5991] + CC1(C)CCC(CN2CCN(c3ccc(C(=O)NS(=O)(=O)c4ccc(NCC5CCOCC5)c([N+](=O)[O-])c4)c(Oc4cnc5[nH]ccc5c4)c3)CC2)=C(c2ccc(Cl)cc2)C1 [Venetoclax] (first compound max 1 µM, 7x7, partner max 1 µM) | -0.0269 | -0.027 | -0.0095 | -0.0143 | 0.137 | -0.0423 | 0.0247 | -0.0144 | -0.0417 | -0.0455 | -0.0271 | 0.0257 | -0.0418 | 0.105 | -0.0317 | 0.147 | -0.0222 | 0.0384 | 0.173 | -0.0106
6 | Cc1c2c(nn1C)CSCc1cc(n(C)n1)CSc1cc(c3ccccc3c1)OCCCc1c(C(=O)O)n(C)c3c-2c(Cl)ccc13 [AZD5991] + CCN(CCO)CCCOc1ccc2c(Nc3cc(CC(=O)Nc4cccc(F)c4)[nH]n3)ncnc2c1 [AZD2811] (first compound max 1 µM, 7x7, partner max 1 µM) | 0.0011 | 0.0446 | 0.0125 | 0.0315 | -0.0193 | -0.0356 | 0.0184 | 0.0438 | -0.0298 | 0.0477 | 0.0896 | 0.0012 | -0.044 | 0.002 | 0.0295 | 0.0734 | -0.0101 | 0.0207 | 0.0804 | 0.0088
7 | Cc1c2c(nn1C)CSCc1cc(n(C)n1)CSc1cc(c3ccccc3c1)OCCCc1c(C(=O)O)n(C)c3c-2c(Cl)ccc13 [AZD5991] + CN(C)CCCOc1ccc(-c2ccc3ncc4c(c3c2)n(C2CCOCC2)c(=O)n4C)cn1 [AZD0156] (first compound max 1 µM, 7x7, partner max 1 µM) | 0.011 | 0.01 | -0.0195 | -0.0047 | 0.0014 | -0.0139 | -0.044 | -0.034 | -0.0079 | -0.0129 | 0.015 | -0.0427 | 0.0158 | -0.007 | 0.0431 | 0.0198 | -0.0019 | 0.0376 | -0.0033 | 0.0199
